Target: Rv2887 (Mycobacterium tuberculosis, UniProt P9WME9)
Test: biochemical

Chain of Rv2887 (P9WME9 whole entry): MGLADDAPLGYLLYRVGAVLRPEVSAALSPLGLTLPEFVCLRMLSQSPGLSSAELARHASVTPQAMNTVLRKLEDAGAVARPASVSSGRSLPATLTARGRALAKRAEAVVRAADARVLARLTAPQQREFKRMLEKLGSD

Structure (SMILES)	Kd [µM]
CCCCOc1ccc2cc(CN3C(=O)CC[C@H]3C(=O)OC)c3cc(OC)c(OC)cc3c2c1 [PP2S]	250
COC(=O)[C@@H]1CCC(=O)N1Cc1cc2ccc(OC)cc2c2cc(OC)c(OC)cc12 [PP1S]	274
